One experiment deals with T1, Alpha-1D adrenergic receptor (Homo sapiens, UniProt P25100).
T1 sequence (P25100 whole entry): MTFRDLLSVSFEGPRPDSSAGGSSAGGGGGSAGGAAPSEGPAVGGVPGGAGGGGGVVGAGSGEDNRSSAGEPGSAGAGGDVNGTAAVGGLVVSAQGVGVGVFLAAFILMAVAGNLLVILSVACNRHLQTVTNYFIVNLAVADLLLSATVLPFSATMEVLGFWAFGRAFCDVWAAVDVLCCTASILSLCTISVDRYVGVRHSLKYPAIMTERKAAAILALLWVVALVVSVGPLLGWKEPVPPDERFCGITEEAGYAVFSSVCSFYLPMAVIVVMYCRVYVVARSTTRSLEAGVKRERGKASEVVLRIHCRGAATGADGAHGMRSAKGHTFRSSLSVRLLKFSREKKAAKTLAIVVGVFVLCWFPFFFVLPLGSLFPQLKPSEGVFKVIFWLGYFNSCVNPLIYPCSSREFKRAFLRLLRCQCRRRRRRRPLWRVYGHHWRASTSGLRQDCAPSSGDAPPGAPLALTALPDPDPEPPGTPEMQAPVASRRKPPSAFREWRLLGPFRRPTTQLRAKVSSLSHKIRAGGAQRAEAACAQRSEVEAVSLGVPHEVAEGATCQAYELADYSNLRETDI
Type of experiment: cell membranes, HEK293, Membrane. Particulars: hek293.
Chain of Beta-3 adrenergic receptor (P13945 whole entry): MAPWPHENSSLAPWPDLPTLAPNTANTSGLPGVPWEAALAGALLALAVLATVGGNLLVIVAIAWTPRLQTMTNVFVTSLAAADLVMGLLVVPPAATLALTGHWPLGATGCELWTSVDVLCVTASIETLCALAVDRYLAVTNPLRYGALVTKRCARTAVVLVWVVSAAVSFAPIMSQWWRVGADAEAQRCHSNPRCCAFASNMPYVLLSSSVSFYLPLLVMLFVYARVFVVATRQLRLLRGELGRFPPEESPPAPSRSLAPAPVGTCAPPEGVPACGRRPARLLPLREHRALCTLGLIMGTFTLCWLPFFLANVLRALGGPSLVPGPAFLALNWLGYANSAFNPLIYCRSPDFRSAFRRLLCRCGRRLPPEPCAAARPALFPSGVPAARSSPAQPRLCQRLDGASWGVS
Chain of Beta-2 adrenergic receptor (P07550 whole entry): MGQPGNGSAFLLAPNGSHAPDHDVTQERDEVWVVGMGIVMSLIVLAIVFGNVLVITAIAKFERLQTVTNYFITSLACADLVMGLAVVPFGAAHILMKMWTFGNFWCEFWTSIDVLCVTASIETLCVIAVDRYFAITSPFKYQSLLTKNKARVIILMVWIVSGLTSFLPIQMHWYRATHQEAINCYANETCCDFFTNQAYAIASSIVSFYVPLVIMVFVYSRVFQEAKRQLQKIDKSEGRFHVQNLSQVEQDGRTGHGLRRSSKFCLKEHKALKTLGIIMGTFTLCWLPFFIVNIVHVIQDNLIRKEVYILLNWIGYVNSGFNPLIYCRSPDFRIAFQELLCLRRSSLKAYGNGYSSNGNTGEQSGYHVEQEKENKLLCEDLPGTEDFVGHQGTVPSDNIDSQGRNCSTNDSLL
Chain of 5-hydroxytryptamine receptor 6 (P50406 whole entry): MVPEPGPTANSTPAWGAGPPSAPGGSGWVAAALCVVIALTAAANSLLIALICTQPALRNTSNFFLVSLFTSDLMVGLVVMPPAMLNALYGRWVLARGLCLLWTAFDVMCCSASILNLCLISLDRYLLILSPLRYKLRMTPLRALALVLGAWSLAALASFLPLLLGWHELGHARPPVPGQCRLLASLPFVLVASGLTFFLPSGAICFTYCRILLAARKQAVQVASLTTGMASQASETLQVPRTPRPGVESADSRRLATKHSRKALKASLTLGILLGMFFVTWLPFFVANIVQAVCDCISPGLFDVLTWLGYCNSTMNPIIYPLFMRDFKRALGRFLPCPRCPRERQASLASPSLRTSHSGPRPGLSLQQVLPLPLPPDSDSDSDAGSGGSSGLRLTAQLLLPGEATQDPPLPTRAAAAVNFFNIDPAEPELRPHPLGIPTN
Turning to `CCOC(=O)[C@H](CCc1ccccc1)N[C@H]1CCc2ccccc2N(CC(=O)O)C1=O` [BENAZEPRIL], the IC50 result was “Not Active”.
Same read-out and setting: the result for `Nc1c(CC(=O)O)cccc1C(=O)c1ccc(Br)cc1` [BROMFENAC] reads “Not Active”; that for `CCCCN1CCCCC1C(=O)Nc1c(C)cccc1C.Cl` (stereo not given) [BUPIVACAINE HYDROCHLORIDE], “Not Active”.
On to `C[C@@]12C(=O)OC(=O)[C@]1(C)[C@H]1CC[C@@H]2O1` [CANTHARIDIN], for which the IC50 entry is “Not Active”.
As for `O=NN(CCCl)C(=O)NCCCl` [CARMUSTINE], the IC50 result is on record as “Not Active”.

A further experiment concerns the target Beta-2 adrenergic receptor (Homo sapiens, UniProt P07550). In words: DRUGMATRIX: Adrenergic beta2 radioligand binding (ligand: [3H] CGP-12177). The experiment is classed as cell membranes, Membrane. The note with it: cho; Not Active = under 50% inhibition at 10 µM.
For the molecule `CCOC(=O)[C@H](CCc1ccccc1)N[C@H]1CCc2ccccc2N(CC(=O)O)C1=O` [BENAZEPRIL], the IC50 entry is “Not Active”.
On the same count and under the same terms, the result for `Nc1c(CC(=O)O)cccc1C(=O)c1ccc(Br)cc1` [BROMFENAC] reads “Not Active”; that for `CCCCN1CCCCC1C(=O)Nc1c(C)cccc1C.Cl` (stereo not given) [BUPIVACAINE HYDROCHLORIDE], “Not Active”.
Take `C[C@@]12C(=O)OC(=O)[C@]1(C)[C@H]1CC[C@@H]2O1` [CANTHARIDIN]: the IC50 entry is reported as “Not Active”.
Still for that read-out and setting: in the case of `O=NN(CCCl)C(=O)NCCCl` [CARMUSTINE] it was “Not Active”.

A further experiment has as its target Beta-3 adrenergic receptor (Homo sapiens, UniProt P13945). Kind of experiment: DRUGMATRIX: Adrenergic beta3 radioligand binding (ligand: [125I] Cyanopindolol). The experiment is classed as cell membranes, Membrane. Particulars: hek293; Not Active = under 50% inhibition at 10 µM.
With `CCOC(=O)[C@H](CCc1ccccc1)N[C@H]1CCc2ccccc2N(CC(=O)O)C1=O` [BENAZEPRIL], the IC50 entry was “Not Active”.
In the case of `Nc1c(CC(=O)O)cccc1C(=O)c1ccc(Br)cc1` [BROMFENAC], the IC50 entry is listed as “Not Active”.
Still for that read-out and setting: the result for `CCCCN1CCCCC1C(=O)Nc1c(C)cccc1C.Cl` (stereo not given) [BUPIVACAINE HYDROCHLORIDE] reads “Not Active”.
As to `C[C@@]12C(=O)OC(=O)[C@]1(C)[C@H]1CC[C@@H]2O1` [CANTHARIDIN], the IC50 entry was “Not Active”.
On the same count and under the same terms, in the case of `O=NN(CCCl)C(=O)NCCCl` [CARMUSTINE] it was “Not Active”.

The next experiment has as its target 5-hydroxytryptamine receptor 6 (Homo sapiens, UniProt P50406). The experiment is classed as cell membranes, HeLa, Membrane. Particulars: hela. Further: in other assays of this panel Not Active means under 50% inhibition at 10 µM.
In the case of `CCOC(=O)[C@H](CCc1ccccc1)N[C@H]1CCc2ccccc2N(CC(=O)O)C1=O` [BENAZEPRIL], the IC50 entry is “Not Active”.
Regarding `Nc1c(CC(=O)O)cccc1C(=O)c1ccc(Br)cc1` [BROMFENAC], the IC50 entry was “Not Active”.
Same read-out and setting: in the case of `CCCCN1CCCCC1C(=O)Nc1c(C)cccc1C.Cl` (stereo not given) [BUPIVACAINE HYDROCHLORIDE] it was “Not Active”; in that of `C[C@@]12C(=O)OC(=O)[C@]1(C)[C@H]1CC[C@@H]2O1` [CANTHARIDIN], “Not Active”; in that of `O=NN(CCCl)C(=O)NCCCl` [CARMUSTINE], “Not Active”.

A further experiment deals with C-C chemokine receptor type 5 (Homo sapiens, UniProt P51681). Type of experiment: cell membranes, HEK293, Membrane. Particulars: hek293.
Chain of C-C chemokine receptor type 5 (P51681 whole entry): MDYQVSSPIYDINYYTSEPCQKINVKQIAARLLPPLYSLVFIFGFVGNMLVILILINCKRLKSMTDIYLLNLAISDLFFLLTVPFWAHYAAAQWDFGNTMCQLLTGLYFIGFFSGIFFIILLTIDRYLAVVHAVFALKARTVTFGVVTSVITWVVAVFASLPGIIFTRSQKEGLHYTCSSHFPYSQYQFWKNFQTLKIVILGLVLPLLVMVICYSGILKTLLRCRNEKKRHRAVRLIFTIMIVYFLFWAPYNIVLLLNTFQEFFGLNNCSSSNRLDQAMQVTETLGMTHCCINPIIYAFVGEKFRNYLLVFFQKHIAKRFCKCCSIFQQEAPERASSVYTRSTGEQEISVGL
Take `CCOC(=O)[C@H](CCc1ccccc1)N[C@H]1CCc2ccccc2N(CC(=O)O)C1=O` [BENAZEPRIL]: the IC50 result is reported as “Not Active”.
Still for that read-out and setting: the result for `Nc1c(CC(=O)O)cccc1C(=O)c1ccc(Br)cc1` [BROMFENAC] reads “Not Active”.
For `CCCCN1CCCCC1C(=O)Nc1c(C)cccc1C.Cl` (stereo not given) [BUPIVACAINE HYDROCHLORIDE], the IC50 result is “Not Active”.
The same measure, in the same setting: the result for `C[C@@]12C(=O)OC(=O)[C@]1(C)[C@H]1CC[C@@H]2O1` [CANTHARIDIN] reads “Not Active”.
Consider `O=NN(CCCl)C(=O)NCCCl` [CARMUSTINE], for which the IC50 entry was “Not Active”.

A further experiment deals with T2, Muscarinic acetylcholine receptor M5 (Homo sapiens, UniProt P08912).
T2 sequence (P08912 whole entry): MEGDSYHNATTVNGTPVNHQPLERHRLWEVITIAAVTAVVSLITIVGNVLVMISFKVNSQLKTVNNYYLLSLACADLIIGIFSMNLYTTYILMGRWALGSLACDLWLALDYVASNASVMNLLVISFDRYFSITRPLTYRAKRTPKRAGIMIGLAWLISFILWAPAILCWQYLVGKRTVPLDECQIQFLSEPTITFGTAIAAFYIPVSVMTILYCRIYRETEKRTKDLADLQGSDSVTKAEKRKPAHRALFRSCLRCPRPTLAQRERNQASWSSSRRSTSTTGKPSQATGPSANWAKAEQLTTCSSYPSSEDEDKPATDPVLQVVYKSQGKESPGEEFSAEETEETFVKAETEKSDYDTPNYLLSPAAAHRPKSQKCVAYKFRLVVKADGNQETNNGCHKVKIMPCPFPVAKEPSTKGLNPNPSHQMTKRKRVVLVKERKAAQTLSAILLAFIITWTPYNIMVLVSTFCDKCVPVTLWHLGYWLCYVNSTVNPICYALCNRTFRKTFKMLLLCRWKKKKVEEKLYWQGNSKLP
Type of experiment: cell membranes, CHO-K1, Membrane. Particulars: cho-k1.
As to `CCOC(=O)[C@H](CCc1ccccc1)N[C@H]1CCc2ccccc2N(CC(=O)O)C1=O` [BENAZEPRIL], the IC50 entry is “Not Active”.
Still for that read-out and setting: in the case of `Nc1c(CC(=O)O)cccc1C(=O)c1ccc(Br)cc1` [BROMFENAC] it was “Not Active”; in that of `CCCCN1CCCCC1C(=O)Nc1c(C)cccc1C.Cl` (stereo not given) [BUPIVACAINE HYDROCHLORIDE], “Not Active”; in that of `C[C@@]12C(=O)OC(=O)[C@]1(C)[C@H]1CC[C@@H]2O1` [CANTHARIDIN], “Not Active”.
The same measure, in the same setting: the result for `O=NN(CCCl)C(=O)NCCCl` [CARMUSTINE] reads “Not Active”.

The target in another experiment is T3, Nitric oxide synthase, inducible (Mus musculus, UniProt P29477).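 Further: inhibition of iNOS enzyme activity measured with L-arginine as substrate; in other assays of this panel Not Active means under 50% inhibition at 10 µM.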
T3 sequence (P29477 whole entry): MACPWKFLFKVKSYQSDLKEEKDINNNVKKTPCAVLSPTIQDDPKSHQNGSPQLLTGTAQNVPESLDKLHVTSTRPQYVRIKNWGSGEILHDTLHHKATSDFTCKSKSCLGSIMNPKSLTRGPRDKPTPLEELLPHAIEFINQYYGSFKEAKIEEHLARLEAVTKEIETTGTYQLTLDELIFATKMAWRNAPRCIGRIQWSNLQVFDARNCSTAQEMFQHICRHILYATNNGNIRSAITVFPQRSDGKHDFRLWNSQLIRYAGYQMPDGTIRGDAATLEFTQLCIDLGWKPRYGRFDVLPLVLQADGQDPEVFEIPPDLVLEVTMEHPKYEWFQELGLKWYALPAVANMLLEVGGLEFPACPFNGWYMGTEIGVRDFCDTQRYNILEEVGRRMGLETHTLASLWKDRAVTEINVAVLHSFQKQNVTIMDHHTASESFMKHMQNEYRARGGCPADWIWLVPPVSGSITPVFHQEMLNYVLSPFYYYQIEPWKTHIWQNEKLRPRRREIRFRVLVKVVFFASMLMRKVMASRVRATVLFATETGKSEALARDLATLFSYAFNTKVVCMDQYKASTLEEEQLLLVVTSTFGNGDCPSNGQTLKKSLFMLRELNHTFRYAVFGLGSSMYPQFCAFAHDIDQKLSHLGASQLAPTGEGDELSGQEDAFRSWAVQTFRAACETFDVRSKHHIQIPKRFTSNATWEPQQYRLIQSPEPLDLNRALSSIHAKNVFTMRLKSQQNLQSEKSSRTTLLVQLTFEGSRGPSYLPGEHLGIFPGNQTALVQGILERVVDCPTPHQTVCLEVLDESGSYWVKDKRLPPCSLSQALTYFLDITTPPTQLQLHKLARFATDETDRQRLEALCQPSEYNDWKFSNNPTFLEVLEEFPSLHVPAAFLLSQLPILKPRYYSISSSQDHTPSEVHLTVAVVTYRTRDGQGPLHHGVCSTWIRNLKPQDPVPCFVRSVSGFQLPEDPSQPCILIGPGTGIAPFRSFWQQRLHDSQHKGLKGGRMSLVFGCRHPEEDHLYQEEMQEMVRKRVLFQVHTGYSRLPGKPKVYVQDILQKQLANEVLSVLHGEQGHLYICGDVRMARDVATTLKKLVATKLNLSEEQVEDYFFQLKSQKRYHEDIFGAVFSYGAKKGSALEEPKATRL
More on the design: species or system Escherichia coli.
Conditions: not given
As for `CCOC(=O)[C@H](CCc1ccccc1)N[C@H]1CCc2ccccc2N(CC(=O)O)C1=O` [BENAZEPRIL], the IC50 entry is “Not Active”.
Still for that read-out and setting: in the case of `Nc1c(CC(=O)O)cccc1C(=O)c1ccc(Br)cc1` [BROMFENAC] it was “Not Active”.
Same read-out and setting: in the case of `CCCCN1CCCCC1C(=O)Nc1c(C)cccc1C.Cl` (stereo not given) [BUPIVACAINE HYDROCHLORIDE] it was “Not Active”; in that of `C[C@@]12C(=O)OC(=O)[C@]1(C)[C@H]1CC[C@@H]2O1` [CANTHARIDIN], “Not Active”; in that of `O=NN(CCCl)C(=O)NCCCl` [CARMUSTINE], “Not Active”.
